Results published in patent US20260103453A1, “NOVEL PYRIMIDINE DERIVATIVE AS BRUTON'S TYROSINE KINASE INHIBITOR” (HANMI PHARM. CO., LTD., priority 2022, published 2026).
pIC50: −log10 of the molar value.

Molecular target: BTK enzyme (Homo sapiens, UniProt Q06187)
Experiment: Z'-LYTE kinase assay, BTK enzyme activity inhibition (ThermoFisher SelectScreen)
Type: biochemical
Settings: 60 minutes reaction at room temperature, compound 1,000 nM to 0.32 nM
Experimental: To do this, the SelectScreen profiling service was requested to the ThermoFisher company to proceed the Z′-LYTE kinase assay. The simple test method can be summarized as follows.
The compounds prepared in Examples above were each dissolved in DMSO to prepare a 10 mM solution, which was then delivered to the ThermoFisher Scientific company. According to the protocol provided by the ThermoFisher Scientific company, the solution of each compound was diluted in 100% DMSO to a have a concentration of 1,000 nM to 0.32 nM (dilution factor of 1/5). Next, the BTK enzyme was diluted in a kinase buffer (50 mM HEPES (PH 7.5), 10 mM MgCl2, 1 mM EGTA, 0.01% BRIJ-35) to a concentration of up to 10 ng/assay. The test was performed in a low volume 384-well plate (low volume NBS, black 384-well plate). First, 100 nL of the diluted compound solution was added to a sample, and then 2.4 μL of buffer, 5 μL of mixed solution of peptide substrate and kinase at twice (2×) the concentration listed in the protocol, and 2.5 μL of 140 μm ATP solution were added thereto, followed by stirring for 30 seconds. Then, it was allowed for a reaction at room temperature for 60 minutes. Afterwards, 5 μL of a color developing solution was added thereto and stirred for 30 seconds, and fluorescence of the peptide substrate was reacted for 60 minutes. After completion of the reaction, each fluorescence value (400 nm excitation filter, 445/520 nm emission filter) was measured by using a fluorescence plate reader.

Sequence of BTK enzyme (Q06187 whole entry): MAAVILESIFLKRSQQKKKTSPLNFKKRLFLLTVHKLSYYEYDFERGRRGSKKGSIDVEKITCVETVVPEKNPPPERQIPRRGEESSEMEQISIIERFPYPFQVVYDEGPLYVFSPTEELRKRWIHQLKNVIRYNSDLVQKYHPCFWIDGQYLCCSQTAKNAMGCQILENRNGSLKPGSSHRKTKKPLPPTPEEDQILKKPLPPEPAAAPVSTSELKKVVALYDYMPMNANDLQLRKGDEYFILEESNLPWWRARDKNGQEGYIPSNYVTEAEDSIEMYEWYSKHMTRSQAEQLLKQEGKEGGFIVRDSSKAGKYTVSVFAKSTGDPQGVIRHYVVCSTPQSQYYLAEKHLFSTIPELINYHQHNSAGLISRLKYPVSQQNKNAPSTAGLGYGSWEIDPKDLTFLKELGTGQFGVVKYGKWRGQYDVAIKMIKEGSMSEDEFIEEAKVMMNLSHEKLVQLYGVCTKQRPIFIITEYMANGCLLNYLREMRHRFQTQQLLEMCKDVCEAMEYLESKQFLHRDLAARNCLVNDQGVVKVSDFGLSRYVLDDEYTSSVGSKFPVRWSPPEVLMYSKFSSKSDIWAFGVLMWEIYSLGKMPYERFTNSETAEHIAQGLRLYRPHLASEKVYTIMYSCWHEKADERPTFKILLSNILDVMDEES

Row | SMILES | pIC50
1 | C=CC(=O)N(C)CC#Cc1c(N)ncnc1-c1cc(F)cc(NC(=O)c2ccc(C(C)C)cc2F)c1C [Example 1] | 8.77
2 | C=CC(=O)N(C)CC#Cc1c(N)ncnc1-c1cc(F)cc(NC(=O)c2ccc(C3CC3)cc2F)c1C [Example 2] | 8.82
3 | C=CC(=O)N(C)CC#Cc1c(N)ncnc1-c1cc(F)cc(N2CCc3cc(C4CC4)cc(F)c3C2=O)c1 [Example 3, N-(3-(4-amino-6-(3-(6-cyclopropyl-8-fluoro-1-oxo-3,4-dihydroisoquinolin-2(1H)-yl)-5-fluorophenyl)pyrimidin-5-yl)prop-2-yn-1-yl)-N-methylacrylamide] | 8.42
4 | C=CC(=O)N(C)CC#Cc1c(N)ncnc1-c1cc(F)cc(N2CCc3cc(C4CC4)cc(F)c3C2=O)c1C [Example 4, N-(3-(4-amino-6-(3-(6-cyclopropyl-8-fluoro-1-oxo-3,4-dihydroisoquinolin-2(1H)-yl)-5-fluoro-2-methylphenyl)pyrimidin-5-yl)prop-2-yn-1-yl)-N-methylacrylamide] | 8.28
5 | C=CC(=O)N(C)CC#Cc1c(N)ncnc1-c1cc(F)cc(-n2ccc3cc(C4CC4)cc(F)c3c2=O)c1 [Example 5, N-(3-(4-amino-6-(3-(6-cyclo-8-fluoro-1-oxoisoquinolin-2(1H)-yl)-5-fluorophenyl)pyrimidin-5-yl)prop-2-yn-1-yl)-N-methylacrylamide] | 8.22
6 | C=CC(=O)N(C)CC#Cc1c(N)ncnc1-c1cc(F)cc(-n2ccc3cc(C4CC4)cc(F)c3c2=O)c1C [Example 6, N-(3-(4-amino-6-(3-(6-cyclopropyl-8-fluoro-1-oxoisoquinolin-2(1H)-yl)-5-fluoro-2-methylphenyl)pyrimidin-5-yl)prop-2-yn-1-yl)-N-methylacrylamide] | 8.52
7 | C=CC(=O)N(C)CC#Cc1c(N)ncnc1-c1cc(F)cc(-n2ccc3cc(C4CC4)cc(F)c3c2=O)c1F [Example 7, N-(3-(4-amino-6-(3-(6-cyclopropyl-8-fluoro-1-oxoisoquinolin-2(1H)-yl)-2,5-difluorophenyl)pyrimidin-5-yl)prop-2-yn-1-yl)-N-methylacrylamide] | 7.70
8 | C=CC(=O)N(C)CC#Cc1c(N)ncnc1-c1cc(C)cc(-n2ccc3cc(C4CC4)cc(F)c3c2=O)c1C [Example 8, N-(3-(4-amino-6-(3-(6-cyclopropyl-8-fluoro-1-oxoisoquinolin-2(1H)-yl)-2,5-dimethylphenyl)pyrimidin-5-yl)prop-2-yn-1-yl)-N-methylacrylamide] | 8.47
9 | C=CC(=O)NCC#Cc1c(N)ncnc1-c1cc(F)cc(-n2ccc3cc(C4CC4)cc(F)c3c2=O)c1C [Example 9, N-(3-(4-amino-6-(3-(6-cyclopropyl-8-fluoro-1-oxoisoquinolin-2(1H)-yl)-5-fluoro-2-methylphenyl)pyrimidin-5-yl)prop-2-yn-1-yl)acrylamide] | 7.47
10 | C=CC(=O)N(C)CC#Cc1c(N)ncnc1-c1cc(F)cc(-n2ncc3cc(C(C)(C)C)cc(F)c3c2=O)c1 [Example 10, N-(3-(4-amino-6-(3-(6-(tert-butyl)-8-fluoro-1-oxophthalazin-2-(1H)-yl)-5-fluorophenyl)pyrimidin-5-yl)prop-2-yn-1-yl)-N-methylacrylamide] | 8.64
11 | C=CC(=O)N(C)CC#Cc1c(N)ncnc1-c1cc(F)cc(-n2ncc3cc(C4CC4)ccc3c2=O)c1C [Example 11, N-(3-(4-amino-6-(3-(6-cyclopropyl-1-oxophthalazin-2(1H)-yl)-5-fluoro-2-methylphenyl)pyrimidin-5-yl)prop-2-yn-1-yl)-N-methylacrylamide] | 8.00
12 | C=CC(=O)N(C)CC#Cc1c(N)ncnc1-c1cc(F)cc(-n2ncc3cc(C4CC4)cc(F)c3c2=O)c1C [Example 12, N-(3-(4-amino-6-(3-(6-cyclopropyl-8-fluoro-1-oxophthalazin-2(1H)-yl)-5-fluoro-2-methylphenyl)pyrimidin-6-yl)prop-2-yn-1-yl)-N-methylacrylamide] | 8.31
13 | C=CC(=O)N(C)CC#Cc1c(N)ncnc1-c1cc(F)cc(-n2ncc3cc(C(C)(C)C)cc(F)c3c2=O)c1C [Example 13] | 7.36
14 | C=CC(=O)N(C)CC#Cc1c(N)ncnc1-c1cc(F)cc(-n2ncc3cc(C(C)(C)C)ccc3c2=O)c1 [Example 14] | 7.62
15 | C=CC(=O)N(C)CC#Cc1c(N)ncnc1-c1cc(F)cc(-n2cnc3cc(C4CC4)cc(F)c3c2=O)c1 [Example 15, N-(3-(4-amino-6-(3-(7-cyclopropyl-5-fluoro-4-oxoquinazolin-3(4H)-yl)-5-fluorophenyl)pyrimidin-5-yl)prop-2-yn-1-yl)-N-methylacrylamide] | 7.47
16 | C=CC(=O)N1CCC[C@@H]1C#Cc1c(N)ncnc1-c1cc(F)cc(-n2ccc3cc(C4CC4)cc(F)c3c2=O)c1C [Example 16, (R)-2-(3-(5-((1-acryloylpyrrolidin-2-yl)ethynyl)-6-aminopyrimidin-4-yl)-5-fluoro-2-methylphenyl)-6-cyclopropyl-8-fluoroisoquinolin-1-(2H)-one] | 7.54
17 | C=CC(=O)N1CCC[C@H]1C#Cc1c(N)ncnc1-c1cc(F)cc(-n2ccc3cc(C4CC4)cc(F)c3c2=O)c1C [Example 17, (S)-2-(3-(5-((1-acryloylpyrrolidin-2-yl)ethynyl)-6-aminopyrimidin-4-yl)-6-fluoro-2-methylphenyl)-6-cyclopropyl-8-fluoroisoquinolin-1-(2H)-one] | 8.39
18 | C=CC(=O)N1CCC[C@H]1C#Cc1c(N)ncnc1-c1cc(F)cc(-n2ccc3cc(C(C)C)cc(F)c3c2=O)c1C [Example 18, (S)-2-(3-(5-((1-acryloylpyrrolidin-2-yl)ethynyl)-6-aminopyrimidin-4-yl)-6-fluoro-2-methylphenyl)-8-fluoro-6-isoquinolin-1-(2H)-one] | 8.01
19 | C=C(F)C(=O)N1CCC[C@H]1C#Cc1c(N)ncnc1-c1cc(F)cc(-n2ccc3cc(C4CC4)cc(F)c3c2=O)c1C [Example 19, (S)-2-(3-(6-amino-5-((1-(2-fluoroacryloyl)pyrrolidin-2-yl)ethynyl)pyrimidin-4-yl)-5-fluoro-2-methylphenyl)-6-cyclopropyl-8-fluoroisoquinolin-1(2H)-one] | 6.70
20 | C=C(Cl)C(=O)N1CCC[C@H]1C#Cc1c(N)ncnc1-c1cc(F)cc(-n2ccc3cc(C4CC4)cc(F)c3c2=O)c1C [Example 20, (S)-2-(3-(6-amino-5-((1-(2-chloroacryloyl)pyrrolidin-2-yl)ethynyl)pyrimidin-4-yl)-5-fluoro-2-methylphenyl)-6-cyclopropyl-8-fluoroisoquinolin-1(2H)-one] | 7.80
21 | C=CC(=O)N1CCCCC1C#Cc1c(N)ncnc1-c1cc(F)cc(-n2ccc3cc(C4CC4)cc(F)c3c2=O)c1C (stereo not shown) [Example 22, 2-(3-(5-((1-acryloylpiperidin-2-yl)ethynyl)-6-aminopyrimidin-4-yl)-5-fluoro-2-methylphenyl)-6-cyclopropyl-8-isoquinolin-1(2H)-one] | 8.24
22 | C=CC(=O)N1CCCC[C@H]1C#Cc1c(N)ncnc1-c1cc(F)cc(-n2ccc3cc(C4CC4)cc(F)c3c2=O)c1C [Example 23] | 8.06
